In US20020065219A1, “Water soluble thiazolyl peptide derivatives” (priority 2000, published 2002):
Converted amounts (≈) assume the structure as drawn. Read-outs that look alike come from different tables or passages of the source.

How the values were obtained:
Assay in all cases: MIC, broth micro dilution assay (NCCLS)
Assay type in all cases: cell-based
[1] = test system: Streptococcus pneumoniae A28272; conditions: for MIC: Streptococcus pneumoniae, A28272, 18 h, read-out: MIC (μg/mL) against Streptococcus pneumoniae A28272
[2] = test system: Staphylococcus aureus A15090; conditions: for MIC: Staphylococcus aureus, A15090, 18 h, read-out: MIC (μg/mL) against Staphylococcus aureus A15090
[3] = test system: Enterococcus faecalis A20688; conditions: for MIC: Enterococcus faecalis, A20688, 18 h, read-out: MIC (μg/mL) against Enterococcus faecalis A20688
[4] = 50% Mueller-Hinton medium and 50% Todd Hewitt medium, 35° C., 18 hours
[5] = Mueller-Hinton medium, 35° C., 18 hours

| Compound | MIC (μg/mL) against Streptococcus pneumoniae A28272 [1] | MIC (μg/mL) against Staphylococcus aureus A15090 [2] | MIC (μg/mL) against Enterococcus faecalis A20688 [3] | MIC (μg/mL) against Streptococcus pneumoniae A28272 [1, 4] | MIC (μg/mL) against Staphylococcus aureus A15090 [2, 5] | MIC (μg/mL) against Enterococcus faecalis A20688 [3, 5] | also measured |
| --- | --- | --- | --- | --- | --- | --- | --- |
| C/C=C1\NC(=O)C(C(C)O)NC(=O)c2csc(n2)-c2cc(O)c(-c3nc(C(=O)NC(CSCCN(CC)CC)C(N)=O)cs3)nc2-c2csc(n2)C2CSC(=O)c3[nH]c4cccc(c4c3C)COC(=O)C(O)CC(NC(=O)c3csc1n3)c1nc(cs1)C(=O)N2 (stereo not drawn) [Example 102] | – | – | – | – | – | – | MIC [1]: 0.03 µg/mL (≈ 0.0221 µM); MIC [2]: 0.125 µg/mL (≈ 0.0922 µM); MIC [3]: 0.25 µg/mL (≈ 0.184 µM) |
| COC(C)=C1NC(=O)C(C(C)O)NC(=O)c2csc(n2)-c2cc(O)c(-c3nc(C(=O)NC(CN4CC5CC4CN5C)C(N)=O)cs3)nc2-c2csc(n2)C2COC(=O)c3c4c5c(cccc5n3O)COC(=O)C(OC3CC(C)(O)C(N(C)C)C(C)O3)C(OC4)C(NC(=O)c3csc1n3)c1nc(cs1)C(=O)N2 (stereo not drawn) [Example 74] | 0.015 µg/mL (≈ 0.00968 µM) | 0.5 µg/mL (≈ 0.323 µM) | 2.0 µg/mL (≈ 1.29 µM) | – | – | – | – |
| COC(C)=C1NC(=O)C(C(C)O)NC(=O)c2csc(n2)-c2cc(O)c(-c3nc(C(=O)NC(CN4CCC(O)C4)C(N)=O)cs3)nc2-c2csc(n2)C2COC(=O)c3c4c5c(cccc5n3O)COC(=O)C(OC3CC(C)(O)C(N(C)C)C(C)O3)C(OC4)C(NC(=O)c3csc1n3)c1nc(cs1)C(=O)N2 (stereo not drawn) [Example 37] | – | – | – | 0.007 µg/mL (≈ 0.00459 µM) | 0.06 µg/mL (≈ 0.0394 µM) | 0.125 µg/mL (≈ 0.082 µM) | – |
| CO/C(C)=C1/NC(=O)C(C(C)O)NC(=O)c2csc(n2)-c2cc(O)c(-c3nc(C(=O)NC(CSC4CN5CCC4CC5)C(N)=O)cs3)nc2-c2csc(n2)C2COC(=O)c3c4c5c(cccc5n3O)COC(=O)C(O[C@H]3C[C@](C)(O)[C@H](N(C)C)[C@H](C)O3)C(OC4)C(NC(=O)c3csc1n3)c1nc(cs1)C(=O)N2 (stereo partly drawn) [Example 60] | 0.5 µg/mL (≈ 0.316 µM) | 2.0 µg/mL (≈ 1.27 µM) | 2.0 µg/mL (≈ 1.27 µM) | – | – | – | – |
| COC(C)=C1NC(=O)C(C(C)O)NC(=O)c2csc(n2)-c2cc(O)c(-c3nc(C(=O)NC(CN(C)CCCn4ccnc4)C(N)=O)cs3)nc2-c2csc(n2)C2COC(=O)c3c4c5c(cccc5n3O)COC(=O)C(O)C(OC4)C(NC(=O)c3csc1n3)c1nc(cs1)C(=O)N2 (stereo not drawn) [Example 97] | – | – | – | 0.125 µg/mL (≈ 0.0889 µM) | 0.125 µg/mL (≈ 0.0889 µM) | 0.25 µg/mL (≈ 0.178 µM) | – |
| COCC1CCCN1CC(NC(=O)c1csc(-c2nc3c(cc2O)-c2nc(cs2)C(=O)NC(C(C)O)C(=O)NC(=C(C)OC)c2nc(cs2)C(=O)NC2c4nc(cs4)C(=O)NC(COC(=O)c4c5c6c(cccc6n4O)COC(=O)C(O)C2OC5)c2nc-3cs2)n1)C(N)=O (stereo not drawn) [Example 98] | – | – | – | 0.003 µg/mL (≈ 0.00217 µM) | 0.03 µg/mL (≈ 0.0217 µM) | 0.5 µg/mL (≈ 0.362 µM) | – |
| CO/C(C)=C1/NC(=O)C(C(C)O)NC(=O)c2csc(n2)-c2cc(O)c(-c3nc(C(=O)NC(CN4C[C@H](C)NC[C@@H]4C)C(N)=O)cs3)nc2-c2csc(n2)C2COC(=O)c3c4c5c(cccc5n3O)COC(=O)C(O[C@H]3C[C@](C)(O)[C@H](N(C)C)[C@H](C)O3)C(OC4)C(NC(=O)c3csc1n3)c1nc(cs1)C(=O)N2 (stereo partly drawn) [Example 59] | – | – | – | 0.25 µg/mL (≈ 0.161 µM) | 1.0 µg/mL (≈ 0.644 µM) | 2.0 µg/mL (≈ 1.29 µM) | – |
| CO/C(C)=C1/NC(=O)C(C(C)O)NC(=O)c2csc(n2)-c2cc(O)c(-c3nc(C(=O)NC(CN4CCN(CC(=O)O)CC4)C(N)=O)cs3)nc2-c2csc(n2)C2COC(=O)c3c4c5c(cccc5n3O)COC(=O)C(O[C@H]3C[C@](C)(O)[C@H](N(C)C)[C@H](C)O3)C(OC4)C(NC(=O)c3csc1n3)c1nc(cs1)C(=O)N2 (stereo partly drawn) [Example 39] | – | – | – | 0.03 µg/mL (≈ 0.019 µM) | 1.0 µg/mL (≈ 0.632 µM) | 1.0 µg/mL (≈ 0.632 µM) | – |
| CO/C(C)=C1/NC(=O)C(C(C)O)NC(=O)c2csc(n2)-c2cc(O)c(-c3nc(C(=O)NC(CS(=O)(=O)C4C[N+]5([O-])CCC4CC5)C(N)=O)cs3)nc2-c2csc(n2)C2COC(=O)c3c4c5c(cccc5n3O)COC(=O)C(OC3CC(C)(O)C([N+](C)(C)[O-])C(C)O3)C(OC4)C(NC(=O)c3csc1n3)c1nc(cs1)C(=O)N2 (stereo not drawn) [Example 105] | – | – | – | – | – | – | MIC [1]: 0.25 µg/mL (≈ 0.152 µM); MIC [2]: 1 µg/mL (≈ 0.608 µM); MIC [3]: 2 µg/mL (≈ 1.22 µM) |
| COCCOCCOCCOCCN1CCN(CC(NC(=O)c2csc(-c3nc4c(cc3O)-c3nc(cs3)C(=O)NC(C(C)O)C(=O)N/C(=C(\C)OC)c3nc(cs3)C(=O)NC3c5nc(cs5)C(=O)NC(COC(=O)c5c6c7c(cccc7n5O)COC(=O)C(O[C@H]5C[C@](C)(O)[C@H](N(C)C)[C@H](C)O5)C3OC6)c3nc-4cs3)n2)C(N)=O)CC1 (stereo partly drawn) [Example 69] | 0.25 µg/mL (≈ 0.146 µM) | 0.5 µg/mL (≈ 0.292 µM) | 4.0 µg/mL (≈ 2.33 µM) | – | – | – | – |
| COCCOCCOCCN1CCN(CC(NC(=O)c2csc(-c3nc4c(cc3O)-c3nc(cs3)C(=O)NC(C(C)O)C(=O)NC(=C(C)OC)c3nc(cs3)C(=O)NC3c5nc(cs5)C(=O)NC(COC(=O)c5c6c7c(cccc7n5O)COC(=O)C(OC5CC(C)(O)C(N(C)C)C(C)O5)C3OC6)c3nc-4cs3)n2)C(N)=O)CC1 (stereo not drawn) [Example 72] | 0.5 µg/mL (≈ 0.299 µM) | 4.0 µg/mL (≈ 2.4 µM) | 4.0 µg/mL (≈ 2.4 µM) | – | – | – | – |
| CCN(CC)CCN(CCN(CC)CC)CC(NC(=O)c1csc(-c2nc3c(cc2O)-c2nc(cs2)C(=O)NC(C(C)O)C(=O)N/C(=C(\C)OC)c2nc(cs2)C(=O)NC2c4nc(cs4)C(=O)NC(COC(=O)c4c5c6c(cccc6n4O)COC(=O)C(O[C@H]4C[C@](C)(O)[C@H](N(C)C)[C@H](C)O4)C2OC5)c2nc-3cs2)n1)C(N)=O (stereo partly drawn) [Example 24] | 0.007 µg/mL (≈ 0.00423 µM) | 1.0 µg/mL (≈ 0.605 µM) | 2.0 µg/mL (≈ 1.21 µM) | – | – | – | – |
| CNC(=O)On1c2c3c4c(cccc41)COC(=O)C(OC1CC(C)(O)C(N(C)C)C(C)O1)C(OC3)C1NC(=O)c3csc(n3)/C(=C(/C)OC)NC(=O)C(C(C)O)NC(=O)c3csc(n3)-c3cc(O)c(-c4nc(C(=O)NC(CN(CCN(C)C)C(=O)NC)C(N)=O)cs4)nc3-c3csc(n3)C(COC2=O)NC(=O)c2csc1n2 (stereo not drawn) [Example 111] | 0.06 µg/mL (≈ 0.0366 µM) | 1.0 µg/mL (≈ 0.61 µM) | 2.0 µg/mL (≈ 1.22 µM) | – | – | – | – |
| CO/C(C)=C1/NC(=O)C(C(C)O)NC(=O)c2csc(n2)-c2cc(O)c(-c3nc(C(=O)NC(CNCCNC(C)=O)C(N)=O)cs3)nc2-c2csc(n2)C2COC(=O)c3c4c5c(cccc5n3O)COC(=O)C(O[C@H]3C[C@](C)(O)[C@H](N(C)C)[C@H](C)O3)C(OC4)C(NC(=O)c3csc1n3)c1nc(cs1)C(=O)N2 (stereo partly drawn) [Example 16] | – | – | – | 0.125 µg/mL (≈ 0.0812 µM) | 1.0 µg/mL (≈ 0.649 µM) | 4.0 µg/mL (≈ 2.6 µM) | – |
| COC(C)=C1NC(=O)C(C(C)O)NC(=O)c2csc(n2)-c2cc(O)c(-c3nc(C(=O)NC(CN4CCN(Cc5nc(OC)cc(OC)n5)CC4)C(N)=O)cs3)nc2-c2csc(n2)C2COC(=O)c3c4c5c(cccc5n3O)COC(=O)C(OC3CC(C)(O)C(N(C)C)C(C)O3)C(OC4)C(NC(=O)c3csc1n3)c1nc(cs1)C(=O)N2 (stereo not drawn) [Example 77] | 0.015 µg/mL (≈ 0.00895 µM) | 0.125 µg/mL (≈ 0.0746 µM) | 0.5 µg/mL (≈ 0.298 µM) | – | – | – | – |
| COC(C)=C1NC(=O)C(C(C)O)NC(=O)c2csc(n2)-c2cc(O)c(-c3nc(C(=O)NC(CN4CCCC4C(O)C(C)C)C(N)=O)cs3)nc2-c2csc(n2)C2COC(=O)c3c4c5c(cccc5n3O)COC(=O)C(OC3CC(C)(O)C(N(C)C)C(C)O3)C(OC4)C(NC(=O)c3csc1n3)c1nc(cs1)C(=O)N2 (stereo not drawn) [Example 81] | – | – | – | 0.007 µg/mL (≈ 0.00443 µM) | 0.125 µg/mL (≈ 0.0791 µM) | 0.125 µg/mL (≈ 0.0791 µM) | – |
| CO/C(C)=C1/NC(=O)C(C(C)O)NC(=O)c2csc(n2)-c2cc(O)c(-c3nc(C(=O)NC(CN4CCC[C@H]4CN4CCCC4)C(N)=O)cs3)nc2-c2csc(n2)C2COC(=O)c3c4c5c(cccc5n3O)COC(=O)C(O[C@H]3C[C@](C)(O)[C@H](N(C)C)[C@H](C)O3)C(OC4)C(NC(=O)c3csc1n3)c1nc(cs1)C(=O)N2 (stereo partly drawn) [Example 65] | 2.0 µg/mL (≈ 1.26 µM) | 0.03 µg/mL (≈ 0.0188 µM) | 1.0 µg/mL (≈ 0.628 µM) | – | – | – | – |
| COC(C)=C1NC(=O)C(C(C)O)NC(=O)c2csc(n2)-c2cc(O)c(-c3nc(C(=O)NC(CN(C)C(=O)CCC(=O)O)C(N)=O)cs3)nc2-c2csc(n2)C2COC(=O)c3c4c5c(cccc5n3O)COC(=O)C(OC3CC(C)(O)C(N(C)C)C(C)O3)C(OC4)C(NC(=O)c3csc1n3)c1nc(cs1)C(=O)N2 (stereo not drawn) [Example 106] | – | – | – | 8.0 µg/mL (≈ 5.1 µM) | 4.0 µg/mL (≈ 2.55 µM) | 32 µg/mL (≈ 20.4 µM) | – |
| COC(C)=C1NC(=O)C(C(C)O)NC(=O)c2csc(n2)-c2cc(O)c(-c3nc(C(=O)NC(CN4CCCC4COc4cccnc4)C(N)=O)cs3)nc2-c2csc(n2)C2COC(=O)c3c4c5c(cccc5n3O)COC(=O)C(OC3CC(C)(O)C(N(C)C)C(C)O3)C(OC4)C(NC(=O)c3csc1n3)c1nc(cs1)C(=O)N2 (stereo not drawn) [Example 79] | 0.001 µg/mL (≈ 0.000619 µM) | 0.06 µg/mL (≈ 0.0371 µM) | 0.125 µg/mL (≈ 0.0774 µM) | – | – | – | – |
| CO/C(C)=C1/NC(=O)C(C(C)O)NC(=O)c2csc(n2)-c2cc(O)c(-c3nc(C(=O)NC(CNCCCN4CCN(C)CC4)C(N)=O)cs3)nc2-c2csc(n2)C2COC(=O)c3c4c5c(cccc5n3O)COC(=O)C(O[C@H]3C[C@](C)(O)[C@H](N(C)C)[C@H](C)O3)C(OC4)C(NC(=O)c3csc1n3)c1nc(cs1)C(=O)N2 (stereo partly drawn) [Example 51] | 0.015 µg/mL (≈ 0.00941 µM) | 0.25 µg/mL (≈ 0.157 µM) | 4.0 µg/mL (≈ 2.51 µM) | – | – | – | – |
